From paper PMC3545992, “Trisubstituted Pyrazolopyrimidines as Novel Angiogenesis Inhibitors” (PLoS ONE, 2013)
Like-named read-outs stand apart in the source and are kept apart here.

Key:
Format in all cases: cell-based, human
[1] = system: HUVECs; test: Cell viability assay (CellTiter-Blue) in confluent HUVECs; settings: 30 µM, 16 h
Protocol: Figure 2 Cdk5 is expressed in HUVECs and HMEC-1 cells, and the compounds are not cytotoxic to endothelial cells at concentrations used in functional assays. A: Cdk5 protein expression in endothelial cells in comparison to human cortex. Cdk5 protein amount was analyzed by Western blot in samples of human cortex (HC), confluent HUVECs (HU) and HMEC-1 (HM). β-actin served as a loading control and for normalization of protein amount. Relative quantification (left panel) and one representative image (right panel) of three individual blots are shown. Note the much lower protein loading in the HC sample in the right panel. (n = 3, mean ± SEM, p>0.05, One Way ANOVA, Dunnett). B: Confluent HUVECs were treated for 16 h with 10 or 30 µM of the indicated compounds or left untreated as control. After addition of CellTiter-BlueTM Reagent, cells were incubated for 4 h and fluorescence was measured at 560 nm (n = 3, mean ± SEM, * p<0.05, One Way ANOVA, Dunnett).
HUVECs were seeded in 96-well plates. After reaching confluency, the cells were treated for 16 h with the indicated compounds or left untreated as control. After addition of CellTiter-Blue^TM Reagent (Promega Corporation, Madison, WI, USA), cells were incubated for additional 4 h and fluorescence was measured at 560 nm in a plate-reading photometer (SpectraFluor Plus; Tecan, Crailsheim, Germany).

[2] = system: HUVECs; test: Chemotaxis assay in FCS gradient (µ-slides Chemotaxis); settings: for chemotaxis of endothelial cells (in words): 10 µM; for inhibition at 10 µM: Homo sapiens, HUVEC, read-out: inhibition of chemotaxis in accumulative distance
Protocol: Figure 5 LGR 1404, 1406 and 1407 decrease chemotaxis of endothelial cells. Chemotaxis of HUVECs in the presence or absence of 10 µM of the indicated compounds was determined in µ-slides Chemotaxis. A: Quantitative evaluation of accumulated and euclidean distance, velocity and y-forward migration index (n = 3, mean ± SEM, * p<0.05, One Way ANOVA, Dunnett). B: Representative cell tracking plots of untreated and treated cells.
The effect of the LGR compounds on endothelial cell chemotaxis was determined using Collagen IV coated μ-slides Chemotaxis (ibidi, Martinsried, Germany). HUVECs (5×10^6 cells per ml) were seeded into the observation channel of the slides according to the manual of the manufacturer, and the cells were allowed to attach for 4 hours. Then, the chambers of the chemotaxis slide were completely filled with serum-free medium M 199; and growth medium containing 30% FCS was added to one chamber in order to generate an FCS-gradient from 0% to […]. 10 µM of the indicated compounds were added both to the M199 and to the 30% FCS. Chemotaxis was observed over 20 hours by live-cell imaging with a Zeiss LSM 510 META confocal microscope equipped with an incubator stage (EMBLem, Heidelberg, Germany). A time series was collected taking 1 picture every 10 minutes. For cell tracking and data analysis, the manual tracking plug-in (Fabrice Cordelieres) and the Chemotaxis and Migration Tool (Version 1.01, ibidi, Martinsried, Germany) for ImageJ were used. Euclidean distance (direct distance from the starting point to the end point) was used as an indicator of directionality of movement, accumulative distance (sum of all migrated distances from track to track) and velocity (mean velocity of every cell calculated as ratio between track to track distance and time) were used as a measure for total motility.

[3] = system: HMEC-1 cells; test: Crystal violet proliferation assay; settings: HMEC-1, 72 h, read-out: IC50 endothelial cell proliferation
Protocol: HMEC-1 cells were seeded to a density of 1,500 cells/well. After 24 h of incubation, a zero point control was stained with crystal violet. The remaining cells were left untreated as positive control or treated with 0.3-1-3-10–30 µM of the indicated compounds. After 72 h additional incubation, relative proliferation was determined by crystal violet staining and quantified as absorption at 550 nm.
HMEC-1 were seeded into 96-well-plates (1,500 cells/well). After 24 h, the cells were stimulated with the indicated compounds. At the same time point, cells in a reference plate were stained with crystal violet, serving as initial cell number. After 72 hours of stimulation, cells were fixed and stained with crystal-violet solution for 10 minutes, washed with water, and air dried. Crystal violet was eluted with dissolving buffer and absorbance was measured at 550 nm (Tecan Sunrise Absorbance reader, TECAN, Crailsheim, Germany). In a parallel series of experiments, cells seeded at the same cell density as in the proliferation assays were treated with 30 µM of the respective compound for 72 h. Afterwards, 10 µg/ml propidium iodide was added for 30 min to counterstain cells for membrane integrity. Phase contrast and fluorescence images were obtained with an inverted Nikon microscope (Ti, Nikon, Düsseldorf, Germany) equipped with a 10x objective.

[4] = system: HUVECs; test: Tube formation assay on Matrigel; settings: 10 µM, 16 h
Protocol: Figure 6 LGR 1404, 1406 and 1407 inhibit tube formation at 10 µM. HUVECs were seeded onto a matrix of growth-factor reduced Matrigel^TM in the presence or absence of the respective concentration of the compounds. After 16 h of incubation, images were taken and tube characteristics were quantified. A: Number of tubes (n = 3, mean ± SEM, * p<0.05, One Way ANOVA, Dunnett). B: Number of branching points (n = 3, mean ± SEM, * p<0.05, One Way ANOVA, Dunnett). C: Tube total length (n = 3, mean ± SEM, * p<0.05, One Way ANOVA, Dunnett). D: Representative images of the tube formation assay and the software based tube recognition (structures identified as tubes are blue) in a control (Co, left panel) and after treatment with LGR 1406 (10 µM, right panel).
Pre-cooled BD Matrigel^TM Matrix Growth Factor Reduced (GFR) (BD Biosciences, Heidelberg, Germany) was filled into the lower compartment of μ-slide Angiogenesis wells (ibidi GmbH, Martinsried, Germany) on ice. For polymerization of the Matrigel^TM Matrix, the slides were incubated at 37°C for 30 min. 12,000 HUVECs/well were seeded onto the Matrigel^TM and stimulated for 16 h. The extent of tube formation was determined by light microscopy using the TILLvisON system. Quantitative image analysis of tube length, number of branching points and tube number was performed with a software tool from Wimasis GmbH, Munich.

Row | Structure (SMILES) | cell viability in comparison to control [1] | chemotaxis of endothelial cells (in words) [2] | inhibition at 10 µM [2] [%] | IC50 ([3]; Homo sapiens) [nM] | reduction of total tube length [4] | tube and branching point numbers and total tube length (in words) [4] | IC50 [3] [nM] | reduction of number of branching points [4] [%] | reduction of tube number [4] | reduction of total tube length ([4]; listed as LGR1407) [%]
1 | CC[C@H](CO)Nc1nc(NCc2ccccc2)c2n[nH]c(C(C)C)c2n1 [LGR 1404, 7-Benzylamino-5(R)-[(1-hydroxymethyl)propylamino]-3-isopropyl-1(2)H-pyrazolo[4,3-d]pyrimidine] | weak but significant decrease of viability | decrease | 50 | 7720 | 25% | significant reduction |  |  |  | 
2 | CC(C)c1n[nH]c2c(NCc3ccccc3)nc(NC3CCCCC3N)nc12 (stereo not drawn) [LGR 1406, 5-[(2-E/Z-aminocyclohexyl)amino]-7-benzylamino-3-isopropyl-1(2)H-pyrazolo[4,3-d]pyrimidine] | weak but significant decrease of viability | decrease | 70 | ~1000 | 56% | significant reduction | 930 | 56 | 42% | 
3 | CC(C)c1n[nH]c2c(NCc3ccccc3)nc(NC3CCC(N)CC3)nc12 (stereo not drawn) [LGR 1407, 5-[(4-E-aminocyclohexyl)amino]-7-benzylamino-3-isopropyl-1(2)H-pyrazolo[4,3-d]pyrimidine] | weak but significant decrease of viability | decrease | 60 | 3660 | about 30% | significant reduction |  | 35 | about 30% | 30
